{"source": "ChEMBL document CHEMBL1240356", "about": "“Efficacy profiles of daptomycin for treatment of invasive and noninvasive pulmonary infections with Streptococcus pneumoniae” (2010)", "key": {"Streptococcus pneumoniae [1]": {"system": "Streptococcus pneumoniae", "assay": "Antibacterial activity against 5 x 10^6 CFU Streptococcus pneumoniae serotype 2 infected in semitherapeutic C57BL/6 mouse model assessed as bacterial count in lung at 6 mg/kg, ip measured after 1 day post infection", "assay_type": "functional", "conditions": "route intraperitoneal"}, "Streptococcus pneumoniae [2]": {"system": "Streptococcus pneumoniae", "assay": "Antibacterial activity against 5 x 10^6 CFU Streptococcus pneumoniae serotype 2 infected in semitherapeutic C57BL/6 mouse model assessed as bacterial count in lung at 6 mg/kg, ip measured after 3 days post infection", "assay_type": "functional", "conditions": "route intraperitoneal"}, "Streptococcus pneumoniae [3]": {"system": "Streptococcus pneumoniae", "assay": "Antibacterial activity against 5 x 10^6 CFU Streptococcus pneumoniae serotype 2 infected in semitherapeutic C57BL/6 mouse model assessed as bacterial count in spleen at 6 mg/kg, ip measured after 1 day post infection", "assay_type": "functional", "conditions": "route intraperitoneal"}, "Streptococcus pneumoniae [4]": {"system": "Streptococcus pneumoniae", "assay": "Antibacterial activity against 5 x 10^6 CFU Streptococcus pneumoniae serotype 2 infected in semitherapeutic C57BL/6 mouse model assessed as bacterial count in liver at 6 mg/kg, ip measured after 1 day post infection", "assay_type": "functional", "conditions": "route intraperitoneal"}, "Streptococcus pneumoniae [5]": {"system": "Streptococcus pneumoniae", "assay": "Antibacterial activity against low dose 5 x 10^6 CFU Streptococcus pneumoniae serotype 2 infected in semitherapeutic C57BL/6 mouse model assessed as reduction of bacteremia at 6 mg/kg, ip measured after 3 dayss post infection", "assay_type": "functional, organism-based", "design": "dose 6 mg/kg"}, "Streptococcus pneumoniae [6]": {"system": "Streptococcus pneumoniae", "assay": "Antibacterial activity against high dose 1.5 x 10^7 CFU Streptococcus pneumoniae serotype 2 infected in semitherapeutic C57BL/6 mouse model assessed as bacterial count in lung at 6 mg/kg, ip measured after 1 day post infection", "assay_type": "functional", "conditions": "route intraperitoneal"}, "Streptococcus pneumoniae [7]": {"system": "Streptococcus pneumoniae", "assay": "Antibacterial activity against high dose 1.5 x 10^7 CFU Streptococcus pneumoniae serotype 2 infected in semitherapeutic C57BL/6 mouse model assessed as bacterial count in lung at 6 mg/kg, ip measured after 2 days post infection", "assay_type": "functional", "conditions": "route intraperitoneal"}, "Streptococcus pneumoniae [8]": {"system": "Streptococcus pneumoniae", "assay": "Antibacterial activity against high dose 1.5 x 10^7 CFU Streptococcus pneumoniae serotype 2 infected in semitherapeutic C57BL/6 mouse model assessed as bacterial count in lung at 6 mg/kg, ip measured after 3 days post infection", "assay_type": "functional", "conditions": "route intraperitoneal"}, "Streptococcus pneumoniae [9]": {"system": "Streptococcus pneumoniae", "assay": "Antibacterial activity against high dose 1.5 x 10^7 CFU Streptococcus pneumoniae serotype 2 infected in semitherapeutic C57BL/6 mouse model assessed as bacterial count in lung at 6 mg/kg, ip measured after 5 day post infection", "assay_type": "functional", "conditions": "route intraperitoneal"}, "Streptococcus pneumoniae [10]": {"system": "Streptococcus pneumoniae", "assay": "Antibacterial activity against high dose 1.5 x 10^7 CFU Streptococcus pneumoniae serotype 2 infected in semitherapeutic C57BL/6 mouse model assessed as bacterial count in blood at 6 mg/kg, ip measured after 1 day post infection", "assay_type": "functional", "conditions": "route intraperitoneal"}, "Streptococcus pneumoniae [11]": {"system": "Streptococcus pneumoniae", "assay": "Antibacterial activity against high dose 1.5 x 10^7 CFU Streptococcus pneumoniae serotype 2 infected in semitherapeutic C57BL/6 mouse model assessed as bacterial count in blood at 6 mg/kg, ip measured after 2 days post infection", "assay_type": "functional", "conditions": "route intraperitoneal"}, "Streptococcus pneumoniae [12]": {"system": "Streptococcus pneumoniae", "assay": "Antibacterial activity against high dose 1.5 x 10^7 CFU Streptococcus pneumoniae serotype 2 infected in semitherapeutic C57BL/6 mouse model assessed as bacterial count in spleen at 6 mg/kg, ip measured after 1 day post infection", "assay_type": "functional", "conditions": "route intraperitoneal"}, "Streptococcus pneumoniae [13]": {"system": "Streptococcus pneumoniae", "assay": "Antibacterial activity against high dose 1.5 x 10^7 CFU Streptococcus pneumoniae serotype 2 infected in semitherapeutic C57BL/6 mouse model assessed as reduction of bacteremiar at 6 mg/kg, ip measured after 3 days post infection", "assay_type": "functional, organism-based", "design": "dose 6 mg/kg"}, "Streptococcus pneumoniae [14]": {"system": "Streptococcus pneumoniae", "assay": "Antibacterial activity against high dose 1.5 x 10^7 CFU Streptococcus pneumoniae serotype 2 infected in semitherapeutic C57BL/6 mouse model assessed as reduction of bacteremia at 6 mg/kg, ip measured after 5 day post infection", "assay_type": "functional, organism-based", "design": "dose 6 mg/kg"}, "Streptococcus pneumoniae [15]": {"system": "Streptococcus pneumoniae", "assay": "Antibacterial activity against high dose 1.5 x 10^7 CFU Streptococcus pneumoniae serotype 2 infected in therapeutic C57BL/6 mouse model assessed as bacterial count in lung at 6 mg/kg, ip measured after 3 days post infection", "assay_type": "functional", "conditions": "route intraperitoneal"}, "Streptococcus pneumoniae [16]": {"system": "Streptococcus pneumoniae", "assay": "Antibacterial activity against high dose 1.5 x 10^7 CFU Streptococcus pneumoniae serotype 2 infected in therapeutic C57BL/6 mouse model assessed as bacterial count in lung at 6 mg/kg, ip measured after 4 days post infection", "assay_type": "functional", "conditions": "route intraperitoneal"}, "Streptococcus pneumoniae [17]": {"system": "Streptococcus pneumoniae", "assay": "Antibacterial activity against high dose 1.5 x 10^7 CFU Streptococcus pneumoniae serotype 2 infected in therapeutic C57BL/6 mouse model assessed as reduction of bacteremia at 6 mg/kg, ip measured after 5 day post infection", "assay_type": "functional, organism-based", "design": "dose 6 mg/kg"}, "Streptococcus pneumoniae [18]": {"system": "Streptococcus pneumoniae", "assay": "Antibacterial activity against low dose 5 x 10^6 CFU Streptococcus pneumoniae serotype 19 infected in semitherapeutic C57BL/6 mouse model assessed as bacterial count in lung at 6 mg/kg, ip measured after 1 day post infection", "assay_type": "functional", "conditions": "route intraperitoneal"}, "Streptococcus pneumoniae [19]": {"system": "Streptococcus pneumoniae", "assay": "Antibacterial activity against low dose 5 x 10^6 CFU Streptococcus pneumoniae serotype 19 infected in semitherapeutic C57BL/6 mouse model assessed as bacterial count in lung at 6 mg/kg, ip measured after 2 days post infection", "assay_type": "functional", "conditions": "route intraperitoneal"}, "Streptococcus pneumoniae [20]": {"system": "Streptococcus pneumoniae", "assay": "Antibacterial activity against low dose 5 x 10^6 CFU Streptococcus pneumoniae serotype 19 infected in semitherapeutic C57BL/6 mouse model assessed as bacterial count in lung at 6 mg/kg, ip measured after 5 day post infection", "assay_type": "functional", "conditions": "route intraperitoneal"}, "Streptococcus pneumoniae [21]": {"system": "Streptococcus pneumoniae", "assay": "Antibacterial activity against low dose 5 x 10^6 CFU Streptococcus pneumoniae serotype 19 infected in semitherapeutic C57BL/6 mouse model assessed as bacteremic mouse at 6 mg/kg, ip measured after 1 day post infection", "assay_type": "functional, organism-based", "design": "dose 6 mg/kg"}, "Streptococcus pneumoniae [22]": {"system": "Streptococcus pneumoniae", "assay": "Antibacterial activity against low dose 5 x 10^6 CFU Streptococcus pneumoniae serotype 19 infected in semitherapeutic C57BL/6 mouse model assessed as bacteremic mouse at 6 mg/kg, ip measured after 2 days post infection", "assay_type": "functional, organism-based", "design": "dose 6 mg/kg"}, "Streptococcus pneumoniae [23]": {"system": "Streptococcus pneumoniae", "assay": "Antibacterial activity against high dose 1.5 x 10^7 CFU Streptococcus pneumoniae serotype 19 infected in semitherapeutic C57BL/6 mouse model assessed as bacterial count in lung at 6 mg/kg, ip measured after 3 days post infection", "assay_type": "functional", "conditions": "route intraperitoneal"}, "Streptococcus pneumoniae [24]": {"system": "Streptococcus pneumoniae", "assay": "Antibacterial activity against high dose 1.5 x 10^7 CFU Streptococcus pneumoniae serotype 19 infected in semitherapeutic C57BL/6 mouse model assessed as bacterial count in lung at 6 mg/kg, ip measured after 4 days post infection", "assay_type": "functional", "conditions": "route intraperitoneal"}, "Streptococcus pneumoniae [25]": {"system": "Streptococcus pneumoniae", "assay": "Antibacterial activity against high dose 1.5 x 10^7 CFU Streptococcus pneumoniae serotype 19 infected in semitherapeutic C57BL/6 mouse model assessed as reduction of bacteremia at 6 mg/kg, ip measured after 1 day post infection", "assay_type": "functional, organism-based", "design": "dose 6 mg/kg"}, "Streptococcus pneumoniae [26]": {"system": "Streptococcus pneumoniae", "assay": "Antibacterial activity against high dose 1.5 x 10^7 CFU Streptococcus pneumoniae serotype 19 infected in semitherapeutic C57BL/6 mouse model assessed as reduction of bacteremia at 6 mg/kg, ip measured after 2 days post infection", "assay_type": "functional, organism-based", "design": "dose 6 mg/kg"}, "Streptococcus pneumoniae [27]": {"system": "Streptococcus pneumoniae", "assay": "Antibacterial activity against high dose 1.5 x 10^7 CFU Streptococcus pneumoniae serotype 19 infected in semitherapeutic C57BL/6 mouse model assessed as reduction of bacteremia at 6 mg/kg, ip measured after 3 days post infection", "assay_type": "functional, organism-based", "design": "dose 6 mg/kg"}, "Streptococcus pneumoniae [28]": {"system": "Streptococcus pneumoniae", "assay": "Antibacterial activity against low dose 5 x 10^6 CFU Streptococcus pneumoniae serotype 2 infected in semitherapeutic C57BL/6 mouse model at 6 mg/kg, ip over a period of 14 days", "assay_type": "functional, organism-based", "design": "dose 6 mg/kg"}, "Streptococcus pneumoniae [29]": {"system": "Streptococcus pneumoniae", "assay": "Antibacterial activity against 1.5 x 10^7 CFU Streptococcus pneumoniae serotype 2 infected in therapeutic C57BL/6 mouse model assessed as effect on leukocytes infiltration in BALF at 6 mg/kg, ip measured on day 3 post infection", "assay_type": "functional, organism-based", "design": "dose 6 mg/kg"}, "Streptococcus pneumoniae [30]": {"system": "Streptococcus pneumoniae", "assay": "Antibacterial activity against 1.5 x 10^7 CFU Streptococcus pneumoniae serotype 2 infected in therapeutic C57BL/6 mouse model assessed as increase in serum compound level at 6 mg/kg, ip measured on day 3 post infection", "assay_type": "functional, organism-based", "design": "dose 6 mg/kg"}}, "note": "Activity calls are given as the source filed them. No cut-off for these calls is given here."}
{"molecule": "CCCCCCCCCC(=O)N[C@@H](Cc1c[nH]c2ccccc12)C(=O)N[C@H](CC(N)=O)C(=O)N[C@@H](CC(=O)O)C(=O)N[C@@H]1C(=O)NCC(=O)N[C@@H](CCCN)C(=O)N[C@@H](CC(=O)O)C(=O)N[C@H](C)C(=O)N[C@@H](CC(=O)O)C(=O)NCC(=O)N[C@H](CO)C(=O)N[C@@H]([C@H](C)CC(=O)O)C(=O)N[C@@H](CC(=O)c2ccccc2N)C(=O)O[C@@H]1C", "values": [{"measurement": "log10cfu", "setting": "Streptococcus pneumoniae [1]", "value": 5.4}, {"measurement": "log10cfu", "setting": "Streptococcus pneumoniae [2]", "value": 3.8}, {"measurement": "log10cfu", "setting": "Streptococcus pneumoniae [3]", "value": 2.2}, {"measurement": "log10cfu", "setting": "Streptococcus pneumoniae [4]", "value": 1.8}, {"measurement": "Activity", "setting": "Streptococcus pneumoniae [5]", "value": "Active"}, {"measurement": "log10cfu", "setting": "Streptococcus pneumoniae [6]", "value": 6}, {"measurement": "log10cfu", "setting": "Streptococcus pneumoniae [7]", "value": 4.2}, {"measurement": "log10cfu", "setting": "Streptococcus pneumoniae [8]", "value": 3.5}, {"measurement": "log10cfu", "setting": "Streptococcus pneumoniae [9]", "value": 2.2}, {"measurement": "log10cfu", "setting": "Streptococcus pneumoniae [10]", "value": 2.6}, {"measurement": "log10cfu", "setting": "Streptococcus pneumoniae [11]", "value": 0.1}, {"measurement": "log10cfu", "setting": "Streptococcus pneumoniae [12]", "value": 1.4}, {"measurement": "Activity", "setting": "Streptococcus pneumoniae [13]", "value": "Active"}, {"measurement": "Activity", "setting": "Streptococcus pneumoniae [14]", "value": "Active"}, {"measurement": "log10cfu", "setting": "Streptococcus pneumoniae [15]", "value": 5.5}, {"measurement": "log10cfu", "setting": "Streptococcus pneumoniae [16]", "value": 2.9}, {"measurement": "Activity", "setting": "Streptococcus pneumoniae [17]", "value": "Active"}, {"measurement": "log10cfu", "setting": "Streptococcus pneumoniae [18]", "value": 6.3}, {"measurement": "log10cfu", "setting": "Streptococcus pneumoniae [19]", "value": 5.5}, {"measurement": "log10cfu", "setting": "Streptococcus pneumoniae [20]", "value": 3.5}, {"measurement": "Activity", "setting": "Streptococcus pneumoniae [21]", "value": "Active"}, {"measurement": "Activity", "setting": "Streptococcus pneumoniae [22]", "value": "Active"}, {"measurement": "log10cfu", "setting": "Streptococcus pneumoniae [23]", "value": 7.1}, {"measurement": "log10cfu", "setting": "Streptococcus pneumoniae [24]", "value": 4.5}, {"measurement": "Activity", "setting": "Streptococcus pneumoniae [25]", "value": "Active"}, {"measurement": "Activity", "setting": "Streptococcus pneumoniae [26]", "value": "Active"}, {"measurement": "Activity", "setting": "Streptococcus pneumoniae [27]", "value": "Active"}, {"measurement": "Activity", "setting": "Streptococcus pneumoniae [28]", "value": "Active"}, {"measurement": "Activity", "setting": "Streptococcus pneumoniae [29]", "value": "Active"}, {"measurement": "Activity", "setting": "Streptococcus pneumoniae [30]", "value": "Active"}]}
